Data as given in patent publication US20230072683A1, “PYRIDO-PYRIMIDIN DERIVATIVES AND PHARMACEUTICAL COMPOSITION, FOR USE IN PREVENTING OR TREATING PI3 KINASE RELATED DISEASES, COMPRISING SAME AS ACTIVE INGREDIENT” (BORYUNG PHARMACEUTICAL CO., LTD, priority 2019, published 2023).

Key:
DNA-PK(h) = DNA-PK(h) (Homo sapiens, UniProt P78527); assay: Evaluation of inhibitory activity against DNA-PK (HTRF kinase assay, GST-cMyc-p53 substrate); format: biochemical; details: compound concentration 0.01 μM; read-out: EXP_VALUE(% Inhibition) DNA-PK(h) 0.01 μM
Outline: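 p53 Ser15 phosphorylation by human DNA-PK was measured by time-resolved FRET ratio (665/620 nm ×10000) using Eu-labelled anti-phospho-Ser15 and d2 anti-GST antibodies. Substrate GST-cMyc-p53 at 50 μM; Mg/ATP-initiated, 30 min at room temperature, EDTA stop.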

[1] = molecular target: PI3K-δ (PI3K(p1108/p857) (h)) (Homo sapiens, UniProt O00329); assay: Evaluation of inhibitory activity against PI3K-δ (HTRF kinase assay); format: biochemical; details: compound concentration 0.01 μM; read-out: EXP_VALUE(% Inhibition) PI3K-δ 0.01 μM
Outline: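 HTRF read-out (665/620 nm ratio ×10000) used Eu-labelled anti-GST, GST-tagged GRP1 PH domain and streptavidin-allophycocyanin after EDTA/PIP3 stop.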

PI3K-δ (PI3K(p1108/p857) (h)), sequence (O00329 whole entry, the tested form may be a part): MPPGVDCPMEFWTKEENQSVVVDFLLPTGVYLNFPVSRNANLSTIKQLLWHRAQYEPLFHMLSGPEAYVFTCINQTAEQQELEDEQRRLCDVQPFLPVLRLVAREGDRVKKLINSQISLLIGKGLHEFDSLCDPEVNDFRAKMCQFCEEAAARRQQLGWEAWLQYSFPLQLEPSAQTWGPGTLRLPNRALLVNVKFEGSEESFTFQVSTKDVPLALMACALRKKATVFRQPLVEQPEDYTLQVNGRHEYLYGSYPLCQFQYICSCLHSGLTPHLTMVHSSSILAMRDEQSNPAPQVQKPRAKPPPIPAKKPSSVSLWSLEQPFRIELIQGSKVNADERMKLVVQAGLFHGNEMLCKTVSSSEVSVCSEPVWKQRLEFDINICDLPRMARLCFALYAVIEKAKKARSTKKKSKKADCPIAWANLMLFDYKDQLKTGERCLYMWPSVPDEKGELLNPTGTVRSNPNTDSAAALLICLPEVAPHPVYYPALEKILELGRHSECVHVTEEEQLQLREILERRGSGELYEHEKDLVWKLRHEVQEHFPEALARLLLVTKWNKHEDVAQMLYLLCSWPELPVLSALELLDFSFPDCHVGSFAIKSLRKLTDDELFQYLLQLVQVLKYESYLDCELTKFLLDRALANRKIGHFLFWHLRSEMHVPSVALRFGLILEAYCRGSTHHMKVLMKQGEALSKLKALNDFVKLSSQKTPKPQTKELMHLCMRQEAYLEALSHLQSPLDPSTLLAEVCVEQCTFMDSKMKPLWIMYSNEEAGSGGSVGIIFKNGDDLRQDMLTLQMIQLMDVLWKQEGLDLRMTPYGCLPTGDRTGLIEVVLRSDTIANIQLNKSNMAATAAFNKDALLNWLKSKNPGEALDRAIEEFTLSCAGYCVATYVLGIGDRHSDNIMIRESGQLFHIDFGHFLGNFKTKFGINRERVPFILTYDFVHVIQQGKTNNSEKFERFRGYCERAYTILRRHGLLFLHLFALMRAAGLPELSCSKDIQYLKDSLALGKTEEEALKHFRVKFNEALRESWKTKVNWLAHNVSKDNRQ
PI3K-δ (PI3K(p1108/p857) (h)), sequence (P27986 whole entry partner, the tested form may be a part): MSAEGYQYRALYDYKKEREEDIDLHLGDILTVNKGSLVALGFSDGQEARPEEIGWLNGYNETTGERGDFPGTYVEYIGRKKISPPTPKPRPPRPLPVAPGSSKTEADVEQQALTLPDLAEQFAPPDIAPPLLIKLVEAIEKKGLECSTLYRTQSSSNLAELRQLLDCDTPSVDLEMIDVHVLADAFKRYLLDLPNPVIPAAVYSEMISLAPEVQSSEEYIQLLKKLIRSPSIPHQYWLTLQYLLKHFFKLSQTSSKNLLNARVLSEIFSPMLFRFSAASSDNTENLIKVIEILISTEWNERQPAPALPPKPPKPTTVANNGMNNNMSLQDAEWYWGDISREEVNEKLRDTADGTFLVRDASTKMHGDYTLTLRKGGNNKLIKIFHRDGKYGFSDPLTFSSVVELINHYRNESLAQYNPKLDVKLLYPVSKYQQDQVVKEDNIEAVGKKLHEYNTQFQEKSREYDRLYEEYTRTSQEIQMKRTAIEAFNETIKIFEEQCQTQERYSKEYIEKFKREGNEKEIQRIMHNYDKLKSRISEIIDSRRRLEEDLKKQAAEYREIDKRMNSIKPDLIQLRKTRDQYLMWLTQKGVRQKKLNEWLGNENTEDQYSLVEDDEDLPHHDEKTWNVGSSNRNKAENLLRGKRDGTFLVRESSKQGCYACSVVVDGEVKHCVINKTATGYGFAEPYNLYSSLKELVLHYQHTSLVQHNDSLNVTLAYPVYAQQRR

Structure (SMILES) | inhibition at 0.01 µM (DNA-PK(h)) [%] | inhibition at 0.01 µM [1] [%]
C[C@H](Nc1ncnc2[nH]ccc(=O)c12)c1c(Cl)c2cccc(-c3cc(F)c4c(c3)NCCO4)c2c(=O)n1-c1ccccc1 [Example 192, (S)-4-((1-(4-chloro-8-(8-fluoro-3,4-dihydro-2H-benzo[b] [1,4]oxazin-6-yl)-1-oxo-2-phenyl-1,2-dihydroisoquinolin-3-yl)ethyl)amino)pyrido[2,3-d]pyrimidin-5(8H)-one] | 25 | 72
CC(C)NC(=O)c1ccc(-c2cccc3c(Cl)c([C@H](C)Nc4ncnc5[nH]ccc(=O)c45)n(-c4ccccc4)c(=O)c23)cc1 [Example 193, (S)-4-(4-chloro-1-oxo-3-(1-((5-oxo-5,8-dihydropyrido[2,3-d]pyrimidin-4-yl)amino)ethyl)-2-phenyl-1,2-dihydroisoquinolin-8-yl)-N-isopropylbenzamide] | 71 | 72
C[C@H](Nc1ncnc2[nH]ccc(=O)c12)c1c(Cl)c2cccc(-c3ccc(N4CCCCC4)nc3)c2c(=O)n1-c1ccccc1 [Example 194, (S)-4-((1-(4-chloro-1-oxo-2-phenyl-8-(6-(piperidin-1-yl)pyridin-3-yl)-1,2-dihydroisoquinolin-3-yl)ethyl)amino)pyrido[2,3-d]pyrimidin-5(8H)-one] | 31 | 59
C[C@H](Nc1ncnc2[nH]ccc(=O)c12)c1c(Cl)c2cccc(-c3ccnc(F)c3)c2c(=O)n1-c1ccccc1 [Example 195, (S)-4-((1-(4-chloro-8-(2-fluoropyridin-4-yl)-1-oxo-2-phenyl-1,2-dihydroisoquinolin-3-yl)ethyl)amino)pyrido[2,3-d]pyrimidin-5(8H)-one] | 101 | 118
CNC(=O)c1ccc(-c2cccc3c(Cl)c([C@H](C)Nc4ncnc5[nH]ccc(=O)c45)n(-c4ccccc4)c(=O)c23)cn1 [Example 196, (S)-5-(4-chloro-1-oxo-3-(1-((5-oxo-5,8-dihydropyrido[2,3-d]pyrimidin-4-yl)amino)ethyl)-2-phenyl-1,2-dihydroisoquinolin-8-yl)-N-methylpicolinamide] | 101 | 127
COc1ncc(-c2cccc3c(Cl)c([C@H](C)Nc4ncnc5[nH]ccc(=O)c45)n(-c4ccccc4)c(=O)c23)cc1C [Example 197, (S)-4-((1-(4-chloro-8-(6-methoxy-5-methylpyridin-3-yl)-1-oxo-2-phenyl-1,2-dihydroisoquinolin-3-yl)ethyl)amino)pyrido[2,3-d]pyrimidin-5(8H)-one] | 61 | 91
C[C@H](Nc1ncnc2[nH]ccc(=O)c12)c1c(Cl)c2cccc(-c3cnccn3)c2c(=O)n1-c1ccccc1 [Example 198, (S)-4-((1-(4-chloro-1-oxo-2-phenyl-8-(pyrazin-2-yl)-1,2-dihydroisoquinolin-3-yl)ethyl)amino)pyrido[2,3-d]pyrimidin-5(8H)-one] | 63 | 90
CCOc1c(OC)ccc(-c2cccc3c(Cl)c([C@H](C)Nc4ncnc5[nH]ccc(=O)c45)n(-c4ccccc4)c(=O)c23)c1F [Example 199, (S)-4-((1-(4-chloro-8-(3-ethoxy-2-fluoro-4-methoxyphenyl)-1-oxo-2-phenyl-1,2-dihydroisoquinolin-3-yl)ethyl)amino)pyrido[2,3-d]pyrimidin-5(8H)-one] | 60 | 35
C[C@H](Nc1ncnc2[nH]ccc(=O)c12)c1c(Cl)c2cccc(-c3cnc(N4CCC4)nc3)c2c(=O)n1-c1ccccc1 [Example 200, (S)-4-((1-(8-(2-(azetidin-1-yl)pyrimidin-5-yl)-4-chloro-1-oxo-2-phenyl-1,2-dihydroisoquinolin-3-yl)ethyl)amino)pyrido[2,3-d]pyrimidin-5(8H)-one] | 72 | 77
C[C@H](Nc1ncnc2[nH]ccc(=O)c12)c1c(Cl)c2cccc(-c3ccc(C(N)=O)nc3)c2c(=O)n1-c1ccccc1 [Example 201, (S)-5-(4-chloro-1-oxo-3-(1-((5-oxo-5,8-dihydropyrido[2,3-d]pyrimidin-4-yl)amino)ethyl)-2-phenyl-1,2-dihydroisoquinolin-8-yl) picolinamide] | 73 | 80
CC(=O)Nc1ccc(-c2cccc3c(Cl)c([C@H](C)Nc4ncnc5[nH]ccc(=O)c45)n(-c4ccccc4)c(=O)c23)cn1 [Example 202, (S)—N-(5-(4-chloro-1-oxo-3-(1-((5-oxo-5,8-dihydropyrido[2,3-d]pyrimidin-4-yl)amino)ethyl)-2-phenyl-1,2-dihydroisoquinolin-8-yl)pyridin-2-yl) acetamide] | 70 | 78
C[C@H](Nc1ncnc2[nH]ccc(=O)c12)c1c(Cl)c2cccc(-c3cnc(NC4CC4)nc3)c2c(=O)n1-c1ccccc1 [Example 203, (S)-4-((1-(4-chloro-8-(2-(cyclopropylamino)pyrimidin-5-yl)-1-oxo-2-phenyl-1,2-dihydroisoquinolin-3-yl)ethyl)amino)pyrido[2,3-d]pyrimidin-5(8H)-one] | 79 | 106
COc1cncc(-c2cccc3c(Cl)c([C@H](C)Nc4ncnc5[nH]ccc(=O)c45)n(-c4ccccc4)c(=O)c23)n1 [Example 204, (S)-4-((1-(4-chloro-8-(6-methoxypyrazin-2-yl)-1-oxo-2-phenyl-1,2-dihydroisoquinolin-3-yl)ethyl)amino)pyrido[2,3-d]pyrimidin-5(8H)-one] | 66 | 73
C[C@H](Nc1ncnc2[nH]ccc(=O)c12)c1c(Cl)c2cccc(-c3cnc(N(C)C)cn3)c2c(=O)n1-c1ccccc1 [Example 205, (S)-4-((1-(4-chloro-8-(5-(dimethylamino)pyrazin-2-yl)-1-oxo-2-phenyl-1,2-dihydroisoquinolin-3-yl)ethyl)amino)pyrido[2,3-d]pyrimidin-5(8H)-one] | 47 | 49
C[C@H](Nc1ncnc2[nH]ccc(=O)c12)c1c(Cl)c2cccc(-c3cnc(OC(C)(C)C)cn3)c2c(=O)n1-c1ccccc1 [Example 206, (S)-4-((1-(8-(5-(tert-butoxy)pyrazin-2-yl)-4-chloro-1-oxo-2-phenyl-1,2-dihydroisoquinolin-3-yl)ethyl)amino)pyrido[2,3-d]pyrimidin-5(8H)-one] | 29 | 45
C[C@H](Nc1ncnc2[nH]ccc(=O)c12)c1c(Cl)c2cccc(-c3cnc(N4CCOCC4)cn3)c2c(=O)n1-c1ccccc1 [Example 207, (S)-4-((1-(4-chloro-8-(5-morpholinopyrazin-2-yl)-1-oxo-2-phenyl-1,2-dihydroisoquinolin-3-yl)ethyl)amino)pyrido[2,3-d]pyrimidin-5(8H)-one] | 52 | 57
C[C@H](Nc1ncnc2[nH]ccc(=O)c12)c1c(Cl)c2cccc(-c3cnc(C(C)(C)C)nc3)c2c(=O)n1-c1ccccc1 [Example 208, (S)-4-((1-(8-(2-(tert-butyl)pyrimidin-5-yl)-4-chloro-1-oxo-2-phenyl-1,2-dihydroisoquinolin-3-yl)ethyl)amino)pyrido[2,3-d]pyrimidin-5(8H)-one] | 58 | 68
CC(C)S(=O)(=O)c1ccc(-c2cccc3c(Cl)c([C@H](C)Nc4ncnc5[nH]ccc(=O)c45)n(-c4ccccc4)c(=O)c23)cc1 [Example 209, (S)-4-((1-(4-chloro-8-(4-(isopropylsulfonyl)phenyl)-1-oxo-2-phenyl-1,2-dihydroisoquinolin-3-yl)ethyl)amino)pyrido[2,3-d]pyrimidin-5(8H)-one] | 77 | 67
C[C@H](Nc1ncnc2[nH]ccc(=O)c12)c1c(Cl)c2cccc(-c3cncc(N4CCOCC4)n3)c2c(=O)n1-c1ccccc1 [Example 210, (S)-4-((1-(4-chloro-8-(6-morpholinopyrazin-2-yl)-1-oxo-2-phenyl-1,2-dihydroisoquinolin-3-yl)ethyl)amino)pyrido[2,3-d]pyrimidin-5(8H)-one] | 56 | 73
C[C@H](Nc1ncnc2[nH]ccc(=O)c12)c1c(Cl)c2cccc(-c3cnc(N4CCN(C)CC4)cn3)c2c(=O)n1-c1ccccc1 [Example 211, (S)-4-((1-(4-chloro-8-(5-(4-methylpiperazin-1-yl)pyrazin-2-yl)-1-oxo-2-phenyl-1,2-dihydroisoquinolin-3-yl)ethyl)amino)pyrido[2,3-d]pyrimidin-5(8H)-one] | 55 | 80
Cc1nc(N)ncc1-c1cccc2c(Cl)c([C@H](C)Nc3ncnc4[nH]ccc(=O)c34)n(-c3ccccc3)c(=O)c12 [Example 212, (S)-4-((1-(8-(2-amino-4-methylpyrimidin-5-yl)-4-chloro-1-oxo-2-phenyl-1,2-dihydroisoquinolin-3-yl)ethyl)amino)pyrido[2,3-d]pyrimidin-5(8H)-one] | 57 | 94
C[C@H](Nc1ncnc2[nH]ccc(=O)c12)c1c(Cl)c2cccc(-c3cnc4ccccc4c3)c2c(=O)n1-c1ccccc1 [Example 213, (S)-4-((1-(4-chloro-1-oxo-2-phenyl-8-(quinolin-3-yl)-1,2-dihydroisoquinolin-3-yl)ethyl)amino)pyrido[2,3-d]pyrimidin-5(8H)-one] | 69 | 98
CSc1ncc(-c2cccc3c(Cl)c([C@H](C)Nc4ncnc5[nH]ccc(=O)c45)n(-c4ccccc4)c(=O)c23)cn1 [Example 214, (S)-4-((1-(4-chloro-8-(2-(methylthio)pyrimidin-5-yl)-1-oxo-2-phenyl-1,2-dihydroisoquinolin-3-yl)ethyl)amino)pyrido[2,3-d]pyrimidin-5(8H)-one] | 70 | 99
